Data: PubChem BioAssay (NCI)
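All cell lines were grown in 96-well plates and treated with compound for 48 hours. Here, GI50 denotes the concentration required for 50% inhibition of growth. The concentration for full growth arrest is given as TGI.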

Experiments:
Test in all cases: DTP human tumour cell line panel, 48 h
[1] = tested on: OVCAR-5 ovarian
[2] = tested on: RPMI-8226 leukemia
[3] = tested on: UACC-257 melanoma
[4] = tested on: K-562 leukemia
[5] = tested on: SK-MEL-5 melanoma
[6] = tested on: HCC-2998 colon
[7] = tested on: NCI-H23 lung
[8] = tested on: SN12C renal
[9] = tested on: NCI-H522 lung
[10] = tested on: RXF 393 renal

SMILES	TGI [1]	TGI [2]	TGI [3]	TGI [4]	TGI [5]	TGI [6]	TGI [7]	TGI [8]	TGI [9]	TGI [10]	GI50 [1]	GI50 [5]	GI50 [7]	GI50 [8]	GI50 [10]	GI50 [2]	GI50 [3]	GI50 [4]	GI50 [6]	GI50 [9]
S=P1(N2CCCCC2)Oc2ccc3ccccc3c2-c2c(ccc3ccccc23)O1	> 100 µM	> 100 µM	> 100 µM	> 100 µM	> 100 µM	> 100 µM	> 100 µM	> 100 µM	> 100 µM	> 100 µM	–	–	–	–	–	–	–	–	–	–
N=C(N)c1ccc(-c2ccc(-c3ccccc3)s2)cc1	2.94 µM	–	–	–	3.19 µM	–	4.53 µM	3.41 µM	–	3.39 µM	1.59 µM	1.77 µM	2 µM	1.72 µM	1.72 µM	–	–	–	–	–
COc1cc(/C=C/c2cc(/C=C/c3ccc(O)c(OC)c3)nc(N)n2)ccc1O	4.33 µM	4.18 µM	3.5 µM	8.31 µM	2.89 µM	3.19 µM	–	> 100 µM	2.79 µM	–	2.03 µM	1.49 µM	–	2.74 µM	–	1.29 µM	1.53 µM	2.3 µM	1.75 µM	1.24 µM
C=C1C(=O)C[C@@]23CCC[C@@]12CC(OCOC)C3 (stereo partly specified)	8.26 µM	9.8 µM	7.82 µM	> 51.5 µM	13.3 µM	12.3 µM	11.1 µM	4.53 µM	0.675 µM	2.17 µM	–	–	–	–	–	–	–	–	–	–
Nc1nc(Cl)cc(OCC2(CO)CC(OCc3ccccc3)C2)n1 (stereo unspecified)	–	–	–	–	–	–	–	–	–	–	–	23.9 µM	36.5 µM	76.5 µM	48.6 µM	26.7 µM	49.5 µM	36.5 µM	–	47.2 µM
O=[N+]([O-])c1ccccc1NC1c2ccccc2Oc2ccccc21	–	> 100 µM	> 100 µM	> 100 µM	> 100 µM	> 100 µM	> 100 µM	> 100 µM	> 100 µM	16.6 µM	–	3.44 µM	9.67 µM	6.17 µM	3.35 µM	5.86 µM	7.2 µM	3.69 µM	75.2 µM	3.84 µM
COC(=O)c1cccc(N[C@@H]2c3cc4c(cc3C(c3cc(OC)c(O)c(OC)c3)[C@H]3C(=O)OCC32)OCO4)c1 (stereo partly specified)	> 100 µM	> 20.2 µM	7.82 µM	20.6 µM	3.02 µM	8.09 µM	4.01 µM	–	8.75 µM	15.9 µM	–	–	–	–	–	–	–	–	–	–
